Laboratory results published in patent publication US8895503B2, “Pharmaceutical composition for transnasal administration of peptide hormones or cytokines” (Toray Industries, Inc., priority 2008, dated 2014).
Where no end group is shown, it is not given here.

Columns and labels:
[1] = Nasal administration of insulin with peptides of SEQ ID NOs:1 to 6 (Example 5); settings: for AAC: blood glucose reduction
From the text: The prepared solutions were subjected to the evaluation in the same manner as in Example 1.

[2] = Nasal administration of insulin with peptide to rats (Example 1); type: in vivo, rat; settings: male SD rats, insulin 10 IU/kg with 0.5 mM peptide or insulin only
Protocol: (§1) Male SD rats having a body weight of about 200 g were fasted for 24 hours and anesthetized by intraperitoneal injection of 50 mg/kg of pentobarbital, followed by incision of the cervical part to expose trachea. […] The tip of the tube to be inserted into the choanae was preliminarily tightly sealed with absorbent cotton and an adhesive. To prevent leakage of the drug solution, the nasopalatine duct in maxilla opening into the oral cavity was closed with a synthetic adhesive (Aron Alpha A; manufactured by Daiichi Sankyo Company, Limited).

[3] = Nasal administration of insulin, dependency on peptide concentration (Example 2); settings: rats, only insulin, no peptide
Protocol: as §1

[4] = rats, nasal, insulin 1 IU/kg with 0.5 mM L-amino acid peptide or no peptide
[5] = male, SD, rat, in vivo, inhaled or intranasal
[6] = blood insulin, rats, nasal, insulin 1 IU/kg with 0.5 mM L-amino acid peptide or no peptide

In the case of KKWKMRRNQFWIKIQR-OH [SEQ ID NO: 2], the AAC [1, 4] is reported as 13.5 % glu. reduc. h, the Tmax [1, 5] is reported as 11.7 min and the “PA (pharmaceutical availability, based on changes in blood glucose level)” value [1, 4] is reported as 14.7%.
In the case of insulin [reference compound], the “blood insulin level (FIG. 1)” value [2] is reported as “hardly exhibited increase in the blood insulin level”, the “bioavailability (BA) of insulin” value ([2]; vs subcutaneous insulin) is reported as 0.8% and the AAC [1, 4] is reported as 4.3 % glu. reduc. h. The AUC [1, 6] was 6.4 μU · h./mL, the Tmax [1, 6] was 10.8 min and the “BA (bioavailability, based on changes in blood insulin level)” value [1, 4] was 2.3%. The “PA (pharmaceutical availability, based on changes in blood glucose level)” value [1, 4] was 4.7%, the “increase in the blood insulin level (FIG. 8)” value [1, 4] was “could be hardly observed” and the bioavailability of insulin [3] was 1.7%.
`CC[C@H](C)[C@H](NC(=O)[C@H](CCCCN)NC(=O)[C@@H](NC(=O)[C@H](CCC(N)=O)NC(=O)[C@@H](N)CCCNC(=N)N)[C@@H](C)CC)C(=O)N[C@@H](Cc1c[nH]c2ccccc12)C(=O)N[C@@H](Cc1ccccc1)C(=O)N[C@@H](CCC(N)=O)C(=O)N[C@@H](CC(N)=O)C(=O)N[C@@H](CCCNC(=N)N)C(=O)N[C@@H](CCCNC(=N)N)C(=O)N[C@@H](CCSC)C(=O)N[C@@H](CCCCN)C(=O)N[C@@H](Cc1c[nH]c2ccccc12)C(=O)N[C@@H](CCCCN)C(=O)N[C@@H](CCCCN)C(=O)N[C@@H](CCCNC(=N)N)C(=O)N[C@@H](CCCNC(=N)N)C(=O)N[C@@H](CCCNC(=N)N)C(=O)N[C@@H](CCCNC(=N)N)C(=O)O` [SEQ ID NO: 6] showed an AAC [1, 4] of 14.4 % glu. reduc. h, an AUC [1, 6] of 55.2 μU · h./mL and a Cmax [1, 6] of 187.3 μU/mL. For the same compound, the “PA (pharmaceutical availability, based on changes in blood glucose level)” value [1, 4] was 15.7%.
For RQIRIWFQNRRMRWRR-OH [SEQ ID NO: 3], the AAC [1, 4] was 17.1 % glu. reduc. h, the Tmax [1, 5] was 18.3 min and the “PA (pharmaceutical availability, based on changes in blood glucose level)” value [1, 4] was 18.6%.
In the case of KQIRIWFQNKKMRWRR-OH [SEQ ID NO: 5], the AAC [1, 4] is reported as 21.5 % glu. reduc. h, the Tmax [1, 5] is reported as 16.0 min and the “PA (pharmaceutical availability, based on changes in blood glucose level)” value [1, 4] is reported as 23.4%.
In the case of KQIKIWFQNKKMKWKK-OH [SEQ ID NO: 4], the AAC [1, 4] is reported as 10.3 % glu. reduc. h, the Tmax [1, 5] is reported as 11.3 min and the “PA (pharmaceutical availability, based on changes in blood glucose level)” value [1, 4] is reported as 11.2%.
